Test results as given in patent US8097654B2, “Radiolabeled 3-[3-(benzoyl-amido)benzyloxy]aspartic acid derivative and method of producing the same” (Suntory Holdings Limited, priority 2004, dated 2012).

How the values were obtained:
EAAT4 = target: T1, EAAT4 (Homo sapiens, UniProt P48664); assay: Saturation binding / Scatchard analysis, EAAT4 expressed on COS-1 cells; details: COS-1 cell membrane preparation
T1 construct: expressed in transfected cells; host or cells: COS-1 cells (membrane preparation)
T1 sequence (P48664 1-564): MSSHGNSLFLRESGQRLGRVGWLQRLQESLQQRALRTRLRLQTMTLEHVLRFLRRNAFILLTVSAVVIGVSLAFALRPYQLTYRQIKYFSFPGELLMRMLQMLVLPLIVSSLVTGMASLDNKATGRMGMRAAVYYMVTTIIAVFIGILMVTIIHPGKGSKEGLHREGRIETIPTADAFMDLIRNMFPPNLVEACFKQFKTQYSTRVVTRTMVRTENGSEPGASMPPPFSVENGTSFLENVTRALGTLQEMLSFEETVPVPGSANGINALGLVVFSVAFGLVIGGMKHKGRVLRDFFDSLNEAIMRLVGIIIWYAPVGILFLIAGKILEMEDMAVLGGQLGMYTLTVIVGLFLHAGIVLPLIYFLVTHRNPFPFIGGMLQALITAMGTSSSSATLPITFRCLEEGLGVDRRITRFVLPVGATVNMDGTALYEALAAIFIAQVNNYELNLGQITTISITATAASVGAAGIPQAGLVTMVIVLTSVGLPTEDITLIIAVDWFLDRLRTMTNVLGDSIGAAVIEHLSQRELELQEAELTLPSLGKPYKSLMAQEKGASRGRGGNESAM
Experimental: (§1) About 20 ml of a medium contained in a T-flask (150 cm^2) was inoculated with COS-1 cells expressing EAAT which were then incubated therein until they reached confluence. After aspiration of the medium, the cells were washed with about 10 ml of phosphate buffered saline (PBS). After adding 4 ml of 0.25% trypsin/1 mM EDTA and allowing to stand for 5 minutes, 6 ml of the medium was added and the cells were collected into a 50 ml tube. Then they were centrifuged at 1200 rpm for 2 minutes and the supernatant was aspirated. The residue was thoroughly homogenized in a binding buffer (50 mM Tris-HCl (pH 7.4), 120 mM NaCl, 5 mM KCl, 2.5 mM CaCl2, 1 mM MgCl2) with the use of a Polytron homogenizer on ice. The homogenate was centrifuged at 30,000×g at 4° C. for 20 minutes. […]
(§2) Then the reaction was ceased by filtering the mixture through a GF/C filter (Whatman) having been soaked in a 0.1% poly-L-lysine hydrobromide solution for an hour followed by washing with 20 mM Tris buffer. After drying the filter, a solid scintillator MeltiLex A (PerkinElmer) was melted-on and the radioactivity was measured with a β-counter. The radioactivity of the sample free from TFB-TBOA was referred to as the total binding amount, while the radioactivity of the sample containing TFB-TBOA was referred to as the nonspecific binding amount. Then the difference was calculated as the specific binding amount.

EAAT2 [1] = target: T2, EAAT2 (Homo sapiens, UniProt P43004); assay: Saturation binding / Scatchard analysis, EAAT2 expressed on COS-1 cells; parameters: expressed in transfected cells; host or cells: COS-1 cells (membrane preparation); details: COS-1 cell membrane preparation
T2 sequence (P43004 whole entry): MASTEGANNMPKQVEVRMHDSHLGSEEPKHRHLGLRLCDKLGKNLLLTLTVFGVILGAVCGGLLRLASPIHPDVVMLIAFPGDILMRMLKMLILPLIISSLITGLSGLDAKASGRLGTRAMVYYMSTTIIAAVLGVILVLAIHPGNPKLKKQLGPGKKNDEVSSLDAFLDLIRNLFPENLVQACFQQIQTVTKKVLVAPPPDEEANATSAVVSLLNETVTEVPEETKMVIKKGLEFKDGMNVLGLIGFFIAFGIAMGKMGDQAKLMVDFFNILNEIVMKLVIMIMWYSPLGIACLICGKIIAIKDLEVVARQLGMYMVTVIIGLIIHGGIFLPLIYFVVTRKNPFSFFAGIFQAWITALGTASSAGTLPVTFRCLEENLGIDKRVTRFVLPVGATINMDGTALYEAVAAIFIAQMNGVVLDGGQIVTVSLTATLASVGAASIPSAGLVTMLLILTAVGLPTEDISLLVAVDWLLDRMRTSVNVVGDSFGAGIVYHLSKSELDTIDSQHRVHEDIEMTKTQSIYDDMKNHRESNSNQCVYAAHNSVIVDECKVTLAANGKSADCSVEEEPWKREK
Experimental: as §1, §2

EAAT5 = target: T3, EAAT5 (Homo sapiens, UniProt O00341); assay: Saturation binding / Scatchard analysis, EAAT5 expressed on COS-1 cells; details: COS-1 cell membrane preparation
T3 construct: expressed in transfected cells; host or cells: COS-1 cells (membrane preparation)
T3 sequence (O00341 whole entry, species assumed): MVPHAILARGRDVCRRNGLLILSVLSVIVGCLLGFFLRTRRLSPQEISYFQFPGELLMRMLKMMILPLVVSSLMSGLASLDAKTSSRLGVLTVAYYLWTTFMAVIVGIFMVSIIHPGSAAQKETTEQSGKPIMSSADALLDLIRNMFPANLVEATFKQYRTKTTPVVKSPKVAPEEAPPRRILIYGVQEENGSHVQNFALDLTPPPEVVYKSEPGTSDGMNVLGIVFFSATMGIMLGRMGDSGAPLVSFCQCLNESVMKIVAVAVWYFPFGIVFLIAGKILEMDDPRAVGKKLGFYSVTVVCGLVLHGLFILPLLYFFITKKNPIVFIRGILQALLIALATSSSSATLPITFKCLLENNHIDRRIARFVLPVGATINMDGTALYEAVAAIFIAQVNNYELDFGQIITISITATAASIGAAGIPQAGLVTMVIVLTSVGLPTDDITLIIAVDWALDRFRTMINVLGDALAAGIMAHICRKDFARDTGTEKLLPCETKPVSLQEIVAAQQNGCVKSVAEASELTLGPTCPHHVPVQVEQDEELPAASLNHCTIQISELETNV
Experimental: as §1, §2

human EAAT3 = target: T4, human EAAT3 (Homo sapiens, UniProt P43005); assay: Inhibition of [14C]-glutamic acid uptake by EAAT3 expressed in MDCK or COS-1 cells; assay type: cell-based; details: 1 μM L-[14C]-glutamic acid, 12 minutes
T4 construct: expressed in transfected cells
T4 sequence (P43005 1-524): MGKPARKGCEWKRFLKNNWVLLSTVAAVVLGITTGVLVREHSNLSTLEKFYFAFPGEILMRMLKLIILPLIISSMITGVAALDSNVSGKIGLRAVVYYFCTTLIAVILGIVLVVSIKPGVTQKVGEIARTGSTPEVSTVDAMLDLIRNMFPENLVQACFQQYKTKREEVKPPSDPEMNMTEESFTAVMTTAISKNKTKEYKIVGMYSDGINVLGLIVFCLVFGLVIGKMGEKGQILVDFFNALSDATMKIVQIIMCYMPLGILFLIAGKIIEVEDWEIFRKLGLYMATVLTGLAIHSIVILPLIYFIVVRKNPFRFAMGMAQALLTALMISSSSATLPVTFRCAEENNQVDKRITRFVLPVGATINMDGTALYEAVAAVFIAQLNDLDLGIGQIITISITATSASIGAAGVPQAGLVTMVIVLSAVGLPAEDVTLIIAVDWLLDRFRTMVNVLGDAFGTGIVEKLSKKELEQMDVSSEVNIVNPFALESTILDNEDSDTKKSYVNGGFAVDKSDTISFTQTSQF
Experimental: (§3) In accordance with a known method (Shimamoto, K. et al., Mol. Pharmacol. 53, 195-201, 1998; Bioorg. Med. Chem. Lett. 10, 2407-2410, 2000), the inhibitory activity was assayed as the ability to inhibit the uptake of [^14C]-glutamic acid by human EAAT2 and EAAT3 stably expressed in MDCK (Madin-Darby canine kidney) cells or transiently expressed in COS-1 cells. The glutamate uptake activity was assayed by incubating a mixture of 1 μM of L-[^14C]-glutamic acid with a sample compound at a predetermined concentration for 12 minutes, lysing the cells and then measuring the radioactivity incorporated into the cells with a liquid scintillator. The amount of uptake was expressed in percentage by referring the amount of uptake in the absence of a test compound (i.e., the buffer alone) as 100% and referring the amount of uptake in a sodium-free solution as 0%.

EAAT2 [2] = target: T2, EAAT2; assay: Inhibition of [14C]-glutamic acid uptake by EAAT2 expressed in MDCK or COS-1 cells; assay type: cell-based; parameters: expressed in transfected cells; details: 1 μM L-[14C]-glutamic acid, 12 minutes
Experimental: as §3

| Kd (EAAT4) [nM] | Kd (EAAT2 [1]) [nM] | Kd (EAAT5) [nM] | IC50 (human EAAT3) [nM] | IC50 (EAAT2 [2]) [nM] | SMILES |
| --- | --- | --- | --- | --- | --- |
| 13 | 26 | 30 |  |  | [3H]CC([3H])c1ccc(C(=O)Nc2cccc(CO[C@H](C(=O)O)[C@H](N)C(=O)O)c2)cc1 (stereo partly shown) [(^3H)Et-BzA-TBOA] |
|  |  |  | 1300 ± 120 | 1300 ± 120 | NC(C(=O)O)C(OCc1ccccc1)C(=O)O [L-TBOA, threo-β-benzyloxyaspartic acid, reference compound] |
|  |  |  | 28 ± 1.8 | 1.9 ± 0.1 | N[C@H](C(=O)O)[C@H](OCc1cccc(NC(=O)c2ccc(C(F)(F)F)cc2)c1)C(=O)O [TFB-TBOA, reference compound] |
